Results from US20240398787A1, “TREATMENT OF MAJOR DEPRESSIVE DISORDER” (AbbVie Inc., priority 2021, published 2024).

How the values were obtained:
[1] = system: patients with major depressive disorder (MDD); assay: Clinical Global Impressions-Improvement (CGI-I) score and response, Clinical Study A; format: in vivo, human; conditions: for CGI-I response rate (score ≤2): LOCF; for CGI-I LS Mean (change from baseline to week 6) / LSMD vs placebo, CGI-I: MMRM
Description: (§1) A global, multicenter, randomized, double-blind (DB), placebo-controlled, parallel-group, fixed-dose study compared cariprazine 1.5 mg/day and cariprazine 3 mg/day with placebo as an adjunctive treatment to ongoing ADT in outpatients with a diagnosis of MDD (via the Diagnostic and Statistical Manual of Mental Disorders, Fifth Edition [DSM-5]) having an inadequate response, as measured by the modified Antidepressant Treatment Response Questionnaire (ATRQ), to 1 to 3 antidepressants administered during the current episode at an adequate dose and adequate duration. Adequate dose was defined as a dose above the minimum labeled dose (per package insert). Adequate duration was defined as continuous ADT treatment for at least 6 weeks, with a minimum of 3 of 6 weeks above the minimal dose.
(§2) The study consisted of up to 14 days screening (with up to an additional 7 days of needed) and washout of prohibited medications followed by 6 weeks of double-blind (DB) treatment followed by a 4-week safety follow-up. At the end of the screening period, patients meeting the entry criteria for the study were randomized (1:1:1) to 1 of 3 double-blind treatment groups. Study treatment groups were: cariprazine 1.5 mg/day+antidepressant therapy and cariprazine 3 mg/day+antidepressant therapy. The control group received matching placebo+antidepressant therapy.
(§3) Dosage/Dose Regimen: Investigational product (cariprazine or placebo) in the form of capsules packaged in blister packs will be provided. No investigational product was administered during the screening/washout period; patients continued the same antidepressant and dose they were on at screening. Patients were taking more than one antidepressant at screening, regardless of the indication, discontinued all other antidepressants prior to baseline (Visit 2). During the double-blind treatment period (6 weeks), patients were administered 1 capsule orally per day in addition to their ongoing ADT. Patients in the 1.5 mg/day+ADT arm were administered 1.5 mg+ADT starting at Visit 2 (Week 0). Patients in the 3 mg/day+ADT arm were administered 1.5 mg+ADT starting at Visit 2 (Week 0) for 2 weeks and then titrate to 3 mg/day+ADT starting at Visit 4 (Week 2). Patients were supplied with identically appearing capsules of either cariprazine 1.5 mg, cariprazine 3 mg, or placebo.
(§4) A randomized, double-blind, placebo-controlled, multicenter trial with 759 participants was conducted in United States, Bulgaria, Estonia, Germany, Hungary, Ukraine, and the United Kingdom. Following a screening period of up to 14 days (with up to an additional 7 days if needed), which included a washout of prohibited psychotropic medications except for ongoing ADT, patients with a partial response to their antidepressant monotherapy were randomized into three treatment groups (1:1:1). One group received cariprazine 1.5 mg/d+ADT, one received cariprazine 3.0 mg/d+ADT, and one group received placebo+ADT. All participants randomized to cariprazine began on 1.5 mg/d; cariprazine 1.5 mg/d patients remained at that dosage, while cariprazine 3.0 mg/d patients received 1.5 mg/d for 2 weeks and increased to 3.0 mg/d on day 15.
The primary and secondary efficacy parameters were change from baseline to week 6 in Montgomery-Åsberg Depression Rating Scale (MADRS) total score and Clinical Global Impressions-Severity (CGI-S) score, respectively (screening, baseline, and weeks 1, 2, 4, and 6). Additional efficacy parameters (screening, baseline, and ≥1 double-blind visit) included: MADRS response (≥50% MADRS total score reduction) and remission (MADRS total score ≤10); change from baseline in HAMD-17 total score and Hamilton Anxiety Rating Scale (HAM-A) total score (32); and Clinical Global Impressions-Improvement (CGI-I) score and response (CGI-I score ≤2). […]

[2] = system: patients with major depressive disorder (MDD); assay: Hamilton Anxiety Rating Scale (HAM-A) total score, Clinical Study A; format: in vivo, human; conditions: for LS mean change from baseline to week 6, HAM-A / LSMD vs placebo, HAM-A: MMRM; for HAM-A remission rate (total score ≤7) / HAM-A remission, odds ratio vs placebo / HAM-A response rate (≥50% score reduction from baseline) / HAM-A response, odds ratio vs placebo / LSMD vs placebo, HAM-A: week 6; for HAM-A remission rate (total score ≤7) / HAM-A remission, odds ratio vs placebo / HAM-A response rate (≥50% score reduction from baseline) / HAM-A response, odds ratio vs placebo: LOCF
Description: as §1, §2, §3, §4
The primary and secondary efficacy parameters were change from baseline to week 6 in Montgomery-Åsberg Depression Rating Scale (MADRS) total score and Clinical Global Impressions-Severity (CGI-S) score, respectively (screening, baseline, and weeks 1, 2, 4, and 6). Additional efficacy parameters (screening, baseline, and ≥1 double-blind visit) included: MADRS response (≥50% MADRS total score reduction) and remission (MADRS total score ≤10); change from baseline in HAMD-17 total score and Hamilton Anxiety Rating Scale (HAM-A) total score (32); and Clinical Global Impressions-Improvement (CGI-I) score and response (CGI-I score ≤2).
The Hamilton Anxiety Rating Scale (HAM-A) (Hamilton 1959) is a clinician-rated scale which consists of 14 items, each rated on a 5-point scale ranging from 0 (not present) to 4 (very severe). […]

SMILES: CN(C)C(=O)N[C@H]1CC[C@H](CCN2CCN(c3cccc(Cl)c3Cl)CC2)CC1 [Cariprazine, trans-N-{4-[2-[4-(2,3-dichlorophenyl)piperazin-1-yl]ethyl]cyclohexyl}-N′,N′-dimethylurea]
- CGI-I response rate (score ≤2) ([1]; 1.5 mg/d + ADT, week 6): 51.2%
- CGI-I LS Mean (change from baseline to week 6) ([1]; 1.5 mg/d + ADT, week 6): 2.6
- LSMD vs placebo, CGI-I ([1]; 1.5 mg/d + ADT, week 6): −0.3
- CGI-I responders (score ≤2) ([1]; 1.5 mg/day + ADT, week 1): 29 (11.6) n (%)
- CGI-I response, odds ratio vs placebo (95% CI) ([1]; 1.5 mg/day + ADT, week 1): 2.0 (1.0, 3.8)
- CGI-I responders (score ≤2) ([1]; 1.5 mg/day + ADT, week 2): 67 (26.8) n (%)
- CGI-I response, odds ratio vs placebo (95% CI) ([1]; 1.5 mg/day + ADT, week 2): 1.4 (0.9, 2.1)
- CGI-I responders (score ≤2) ([1]; 1.5 mg/day + ADT, week 4): 115 (46.0) n (%)
- CGI-I response, odds ratio vs placebo (95% CI) ([1]; 1.5 mg/day + ADT, week 4): 1.6 (1.1, 2.3)
- CGI-I responders (score ≤2) ([1]; 1.5 mg/day + ADT, week 6): 128 (51.2) n (%)
- CGI-I response rate (score ≤2) ([1]; 3.0 mg/d + ADT, week 6): 50.4%
- CGI-I LS Mean (change from baseline to week 6) ([1]; 3 mg/d + ADT, week 6): 2.6
- LSMD vs placebo, CGI-I ([1]; 3 mg/d + ADT, week 6): −0.3
- CGI-I responders (score ≤2) ([1]; 3 mg/day + ADT, week 1): 20 (7.9) n (%)
- CGI-I response, odds ratio vs placebo (95% CI) ([1]; 3 mg/day + ADT, week 1): 1.3 (0.6, 2.6)
- CGI-I responders (score ≤2) ([1]; 3 mg/day + ADT, week 2): 62 (24.6) n (%)
- CGI-I response, odds ratio vs placebo (95% CI) ([1]; 3 mg/day + ADT, week 2): 1.2 (0.8, 1.9)
- CGI-I responders (score ≤2) ([1]; 3 mg/day + ADT, week 4): 102 (40.5) n (%)
- CGI-I response, odds ratio vs placebo (95% CI) ([1]; 3 mg/day + ADT, week 4): 1.3 (0.9, 1.8)
- CGI-I responders (score ≤2) ([1]; 3 mg/day + ADT, week 6): 127 (50.4) n (%)
- LS mean change from baseline to week 6, HAM-A ([2]; 1.5 mg/d + ADT): −9.1
- HAM-A remission rate (total score ≤7) ([2]; 1.5 mg/d + ADT): 28.7%
- HAM-A remission, odds ratio vs placebo ([2]; 1.5 mg/d + ADT): 1.2
- HAM-A response rate (≥50% score reduction from baseline) ([2]; 1.5 mg/d + ADT): 40.9%
- HAM-A response, odds ratio vs placebo ([2]; 1.5 mg/d + ADT): 1.3
- LSMD vs placebo, HAM-A ([2]; 1.5 mg/d + ADT): −1.3
- LS mean change from baseline to week 6, HAM-A ([2]; 3 mg/d + ADT): −8.6
- HAM-A remission rate (total score ≤7) ([2]; 3.0 mg/d + ADT): 27.9%
- HAM-A remission, odds ratio vs placebo ([2]; 3.0 mg/d + ADT): 1.1
- HAM-A response rate (≥50% score reduction from baseline) ([2]; 3.0 mg/d + ADT): 41.0%
- HAM-A response, odds ratio vs placebo ([2]; 3.0 mg/d + ADT): 1.3
- LSMD vs placebo, HAM-A ([2]; 3 mg/d + ADT): −0.8
